# Test results from US20260091082A1, “CYCLIC PEPTIDE DERIVATIVE COMPOSITION FOR TREATING OR PREVENTING EYE DISEASE” (DKS Co. Ltd., priority 2022, published 2026).
# Where “and” joins values, the source holds several entries; their conditions need not be identical. Identical values can stand only once.
# Tests used:
# [1] = General condition observation (clinical signs) in anterior chamber aqueous humor pressure load rat model; format: in vivo, Rat; Slc: SD; design: key: —: No anormal sign; settings: 10 mg/mL intravenous, once about 30 minutes before ischemic load, animals 401-410 (test group 4), per animal
# Description: (§1) • Species and strains: Rat; Slc: SD • Number of animals on arrival and sex: 50 males • Age in weeks at arrival: 6 weeks old • Body weight range at arrival: 147.2 to 170.0 g • Source: Japan SLC, Inc.
# The body weight of the animals was measured at a frequency of once a week or more, and the general condition observation was performed every day.
# (§2) • Administration route: Eyedrop administration, intravenous administration • Administration method (eyedrop): Eyedrop administration was performed on a treated eye (right eye) of a rat using a micropipette 4 times a day (at intervals of 1.5 hours or more). • Administration method (intravenous): The amount of administration solution, calculated from the body weight on the day of administration, was administered from the tail vein using a syringe and an injection needle about 30 minutes before ischemic load. • Time of administration: Administration was performed according to the following schedule.
# [2] = tested on: anterior chamber aqueous humor pressure load rat model; test: Retinal thickness (IPL, INL, ONL) in retinal damage model induced by anterior chamber aqueous humor pressure load; format: in vivo, Rat; Slc: SD; settings: 10 mg/mL intravenous, right eye
# Description: • Name: Compound 9 • Source: Synthesized in the above Examples • Used amount: 0.4 mL (50 mg/mL solution) • Storage conditions: Freezing, light shielding
# Method for preparing test substance (1 mg/mL): A high concentration solution prepared at 50 mg/mL was diluted 50 times with a medium to prepare a 1 mg/mL administration solution.
# • Name: MK-801 • Distributor: SIGMA-ALDRICH • Use amount: 0.0501 g • Storage condition: refrigerated (2° C. to 8° C.)
# Method for preparing positive control substance (10 mg/mL): 0.0501 g was weighed out and made up to a total volume of 5 mL with a control substance (physiological saline).
# as §1
# Grouping was performed two days before the first creation of the retinal damage model induced by an anterior chamber aqueous humor pressure load. Using the daily body weight as an index, stratified random allocation was performed using SAS (Ver. 9.3, SAS Institute Japan Ltd.) and EXSUS (Ver. 8.0, CAC Croit Corporation) so that an average value of the body weights of each group was approximately uniform.
# as §2
# 1. 10 mg/kg xylazine hydrochloride was intramuscularly administered on the model creation day (day 0). A rat was placed in an anesthesia box and subjected to general anesthesia with isoflurane (5%, oxygen:nitrous oxide=1:3). When anesthesia was effective, the rat was taken out of the anesthesia box, an inhalation anesthetic mask was worn, and anesthesia was maintained with isoflurane (1% to 5%, oxygen nitrous oxide=1:3).
# 2. The body temperature was maintained at 37° C. with a warming mat, and a mydrin P ophthalmic solution was instilled in the right eye (treated eye) of the rat to dilate the pupil, then the cravit ophthalmic solution 1.5% (Santen Pharmaceutical Co., Ltd.) was instilled.
# 3. A bottle of an IV bag containing physiological saline was previously suspended so that a water surface was 155 cm (100 mmHg or more) higher than the eye of the rat. The IV bag was connected to a pediatric infusion set (Terumo Corporation), a 27 G injection needle thereof was inserted into and fixed to the anterior chamber while slightly dripping the liquid from a needle tip. The model was created in the light phase (6:00 to 18:00) in consideration of the diurnal variation of the intraocular pressure.
# 4. After the needle was inserted into the anterior chamber, pressure (100 mmHg or more) was loaded and maintained in the anterior chamber by associating the reflux system.
# 5. After an ischemic load for 45 minutes, the injection needle and the like were removed, the inhalation anesthetic mask was removed, and the rat was sufficiently woken up under a warming mat, and then returned to the cage.
# 6. For 2 days after surgery, 10 mg/kg xylazine hydrochloride was intramuscularly administered as an analgesic for the purpose of alleviating the pain after the treatment.
# 1. Fourteen days after model creation, general anesthesia was performed with isoflurane (5%, oxygen:nitrous oxide=1:3), euthanasia was then performed by exsanguination, a suture was placed as a marker at the 12 o'clock position of the ocular conjunctiva, and eyeball enucleation was performed.
# 2. […]
# [3] = 300 μm from optic disk, individual measurements per animal
# [4] = 300 μm from optic disk, mean per animal
smiles,measurement,setting,value
"C[C@]12N[C@H](Cc3ccccc31)c1ccccc12 [MK-801, reference compound]",Clinical signs,[1]; Day 0,—
same,Clinical signs,[1]; Day 1,—
same,Clinical signs,[1]; Day 2,—
same,Clinical signs,[1]; Day 3,—
same,Clinical signs,[1]; Day 4,—
same,Clinical signs,[1]; Day 5,—
same,Clinical signs,[1]; Day 6,—
same,Clinical signs,[1]; Day 7,—
same,Clinical signs,[1]; Day 8,—
same,Clinical signs,[1]; Day 9,—
same,Clinical signs,[1]; Day 10,—
same,Clinical signs,[1]; Day 11,—
same,Clinical signs,[1]; Day 12,—
same,Clinical signs,[1]; Day 13,—
same,Clinical signs,[1]; Day 14 (day of necropsy),—
same,Clinical signs,[1]; Day −1,—
same,Clinical signs,[1]; Day −2,—
same,"Thickness of INL (μm), Distance from Optic Disk 300 μm",[2]; [3],43.354 μm and 38.856 μm and 38.516 μm and 27.422 μm (2×) and 28.629 μm and 30.645 μm and 26.920 μm and 25.120 μm and 24.650 μm and 35.504 μm and 33.881 μm and 32.856 μm and 27.965 μm and 24.925 μm and 25.788 μm and 20.485 μm and 25.262 μm and 25.607 μm and 23.821 μm and 27.016 μm and 25.835 μm and 27.670 μm and 26.395 μm and 24.758 μm and 25.159 μm and 24.873 μm and 35.703 μm and 32.278 μm and 31.627 μm
same,"Thickness of IPL (μm), Distance from Optic Disk 300 μm",[2]; [3],47.608 μm and 50.434 μm and 48.521 μm and 38.326 μm and 39.132 μm and 40.728 μm and 36.614 μm and 38.136 μm and 36.780 μm and 37.923 μm and 37.097 μm and 36.446 μm and 38.879 μm and 37.066 μm and 37.189 μm and 34.034 μm and 34.084 μm and 33.182 μm and 34.736 μm and 31.462 μm and 32.671 μm and 35.348 μm and 37.744 μm and 37.108 μm and 43.612 μm and 37.515 μm and 38.865 μm and 37.237 μm and 35.429 μm and 37.489 μm
same,"Thickness of INL (μm), Distance from Optic Disk 300 μm, Mean",[2]; [4],40.242 μm and 28.899 μm and 25.563 μm and 34.080 μm and 26.226 μm and 23.785 μm and 25.557 μm and 27.162 μm and 24.930 μm and 33.203 μm
same,"Thickness of IPL (μm), Distance from Optic Disk 300 μm, Mean",[2]; [4],48.854 μm and 39.395 μm and 37.177 μm and 37.155 μm and 37.711 μm and 33.767 μm and 32.956 μm and 36.733 μm and 39.997 μm and 36.718 μm
same,"Thickness of INL (μm), Distance from Optic Disk 600 μm","[2]; 600 μm from optic disk, individual measurements per animal",38.743 μm and 36.612 μm and 29.504 μm and 25.885 μm and 27.808 μm and 31.247 μm and 41.632 μm and 47.024 μm and 32.661 μm and 30.741 μm and 27.960 μm and 28.852 μm and 19.795 μm and 16.209 μm and 32.381 μm and 32.162 μm and 24.755 μm and 25.923 μm (2×) and 32.268 μm and 39.011 μm and 36.780 μm and 28.629 μm and 32.351 μm and 44.795 μm and 30.775 μm and 27.268 μm and 20.418 μm and 31.364 μm and 35.532 μm
